# The source made the active and inactive calls. The rule behind the calls is not given here.
# Experiments:
# SK-N-SH [1] = assay: Induction of mitochondrial dysfunction in human SK-N-SH cells assessed as increase in intracellular green fluorescence intensity at 6 uM; type: functional, cell-based; conditions: time 2-48 hrs
# [2] = Downregulation of vimentin expression in human SK-N-SH cells at 3 to 9 uM measured after 48 hrs by Western blot analysis relative to control; type: functional; conditions: dose 3-9 µM
# [3] = Toxicity in female ICR mouse assessed as histomorphological changes in liver at 10 to 20 mg/kg, ip H and E staining based analysis; type: organism-based; conditions: in vivo, dose 10-20 mg/kg
# [4] = Toxicity in female ICR mouse assessed as change in organ coefficient of spleen at 10 mg/kg, ip […] (reference value: 0.006+/-0.002); type: organism-based; conditions: in vivo
# N2a [5] = assay: Antitumor activity against mouse N2a cells implanted in female ICR mouse model assessed as tumor inhibition rate at 20 mg/kg, ip measured upto 8 days relative to control; type: functional; design: scale not given: the % may be the effect or the level left; conditions: time <= 8 day
# [6] = Downregulation of Beta-catenin expression in human SK-N-SH cells at 6 uM measured after 48 hrs by Western blot analysis relative to control; type: functional
# Quadruplex DNA [7] = assay: Binding affinity to BCL-2 G4 DNA (unknown origin) assessed as dissociation constant by SPR analysis; type: nucleic-acid assay
# SK-N-SH [8] = assay: Induction of mitochondrial dysfunction in human SK-N-SH cells assessed as increase in intracellular green fluorescence intensity at 3 to 9 uM; type: functional, cell-based; conditions: dose 3-9 µM
# SK-N-SH [9] = assay: Antiproliferative activity against human SK-N-SH cells assessed as reduction in cell proliferation incubated for 60 hrs by CCK-8 method; type: functional, cell-based; conditions: dose 0.5-2 µM
# [10] = Toxicity in female ICR mouse assessed as change in organ coefficient of kidney at 20 mg/kg, ip […] (reference value: 0.007); type: organism-based; conditions: in vivo
# [11] = Drug localization in cytoplasm of human SK-N-SH cells assessed as increase in green fluorescence at 6 uM measured after 48 hrs by DAPI staining based fluorescence microscopic analysis; type: ADME, subcellular
# [12] = Antiproliferative activity against human Embryonic lung cell assessed as inhibition of cell growth incubated for 60 hrs by CCK-8 method; type: toxicity, cell-based
# [13] = Drug localization in mitochondria of living human SK-N-SH cells assessed as colocalization at 6 uM incubated for 48 hrs by DAPI staining based fluorescence microscopic analysis; type: ADME
# [14] = Downregulation of N-cadherin expression in human SK-N-SH cells at 6 uM measured after 48 hrs by Western blot analysis relative to control; type: functional
# [15] = Downregulation of Beta-catenin expression in human SK-N-SH cells at 9 uM measured after 48 hrs by Western blot analysis relative to control; type: functional
# [16] = Toxicity in female ICR mouse assessed as histomorphological changes in spleen at 10 to 20 mg/kg, ip H and E staining based analysis; type: organism-based; conditions: in vivo, dose 10-20 mg/kg
# SK-N-SH [17] = assay: Upregulation of cytochrome C level in human SK-N-SH cells at 6 uM measured after 48 hrs by immunofluorescence staining based microscopic analysis; type: functional, cell-based
# Quadruplex DNA [18] = assay: Binding affinity to HRCC G4 DNA (mitochondrial DNA) (unknown origin) assessed as dissociation constant by SPR analysis; type: nucleic-acid assay
# SK-N-SH [19] = assay: Downregulation of caspase-9 expression in human SK-N-SH cells at 3 to 9 uM measured after 48 hrs by Western blot analysis; type: functional, cell-based; conditions: dose 3-9 µM
# SK-N-SH [20] = assay: Inhibition of cell invasion in human SK-N-SH cells at 2 uM measured after 48 hrs by crystal violet staining based microscopic analysis relative to control; type: functional
# N2a [21] = assay: Antitumor activity against mouse N2a cells implanted in female ICR mouse model assessed as tumor inhibition rate at 10 mg/kg, ip measured upto 8 days relative to control; type: functional; design: scale not given: the % may be the effect or the level left; conditions: time <= 8 day
# N2a [22] = assay: Antitumor activity against mouse N2a cells implanted in female ICR mouse model assessed as change in body weight at 20 mg/kg, ip measured upto 8 days (reference value: 25.54 +/-2.19 g); type: functional; conditions: time <= 8 day
# SK-N-SH [23] = assay: Inhibition of colony formation in human SK-N-SH cells assessed as reduction in colony size at 0.5 to 2 uM preincubated for 24 hrs followed by incubation under compound free medium for 8 days by crystal violet staining based analysis; type: functional, cell-based; conditions: dose 0.5-2 µM
# SK-N-SH [24] = assay: Induction of mitochondrial dysfunction in human SK-N-SH cells assessed as appearance of ring like distribution at 6 uM measured upto 48 hrs; type: functional, cell-based
# SK-N-SH [25] = assay: Downregulation of Bcl-2 expression in human SK-N-SH cells at 3 to 9 uM measured after 48 hrs by Western blot analysis; type: functional, cell-based; conditions: dose 3-9 µM
# [26] = Toxicity in female ICR mouse assessed as change in organ coefficient of liver at 10 mg/kg, ip […] (reference value: 0.058+/-0.010); type: organism-based; conditions: in vivo
# SK-N-SH [27] = assay: Upregulation of AIF level in human SK-N-SH cells at 6 uM measured after 48 hrs by immunofluorescence staining based microscopic analysis; type: functional, cell-based
# SK-N-SH [28] = assay: Downregulation of caspase-3 expression in human SK-N-SH cells at 3 to 9 uM measured after 48 hrs by Western blot analysis; type: functional, cell-based; conditions: dose 3-9 µM
# SK-N-SH [29] = assay: Antiproliferative activity against human SK-N-SH cells assessed as reduction in cell proliferation at 0.5 uM incubated for 60 hrs by CCK-8 method relative to control; type: functional; design: scale not given: the % may be the effect or the level left
# [30] = Drug localization in nucleus of human SK-N-SH cells assessed as increase in green fluorescence at 6 uM measured after 48 hrs by DAPI staining based fluorescence microscopic analysis; type: ADME, subcellular
# N2a [31] = assay: Antitumor activity against mouse N2a cells implanted in female ICR mouse model assessed as reduction in tumor weight at 10 mg/kg, ip measured upto 8 days (reference value: 0.9 +/-0.26 g); type: functional; conditions: time <= 8 day
# N2a [32] = assay: Antitumor activity against mouse N2a cells implanted in female ICR mouse model assessed as reduction in tumor weight at 20 mg/kg, ip measured upto 8 days (reference value: 0.9 +/-0.26 g); type: functional; conditions: time <= 8 day
structure (smiles),measurement,setting,value
N#C[Se]CCCOc1ccc2cc(C(=O)N3N=C(c4ccc(F)cc4)CC3c3ccc(F)cc3)c(=O)oc2c1 (configuration not stated),Activity,SK-N-SH [1],Time-dependent-effect
same,Activity,[2],33.1%
same,Activity,[3],Non-toxic
same,Activity,[4],0.006
same,Activity,N2a [5],93.3%
same,Activity,[6],70.8%
same,Kd,Quadruplex DNA [7],78.5 nM
same,Activity,SK-N-SH [8],Active
same,Activity,SK-N-SH [9],Dose-dependent-effect
same,Activity,[10],0.008
same,Drug uptake,[11],Active
same,Activity,[12],Non-toxic
same,Drug uptake,[13],Active
same,Activity,[14],63.1%
same,Activity,[15],42.2%
same,Activity,[16],Non-toxic
same,Activity,SK-N-SH [17],Active
same,Kd,Quadruplex DNA [18],14.2 nM
same,Activity,SK-N-SH [19],Active
same,inhibition at 2 µM,SK-N-SH [20],78.4%
same,Activity,N2a [21],79.1%
same,Activity,N2a [22],26.34 g
same,inhibition,SK-N-SH [23],Active
same,Activity,SK-N-SH [24],Active
same,Activity,SK-N-SH [25],Active
same,Activity,[26],0.059
same,Activity,SK-N-SH [27],Active
same,Activity,SK-N-SH [28],Active
same,Activity,SK-N-SH [29],24.1%
same,Drug uptake,[30],Not_active
same,Activity,N2a [31],0.19 g
same,Activity,N2a [32],0.06 g

# From ChEMBL document CHEMBL6103579, “Antiproliferative activity of selenium-enriched coumarin derivatives on the SK-N-SH neuroblastoma cell line: Mechanistic insights” (Eur J Med Chem, 2025)
